Reference: ChEMBL document CHEMBL3217454, “Structureactivity relationship studies using peptide arrays: the example of HIV-1 Revintegrase interaction” (Medchemcomm, 2013)
Square brackets hold non-standard residues; d marks the D form. Peptide text beside a SMILES is read from it. NMeR = CN[C@@H](CCCNC(=N)N)C(=O)O; NMeF = CN[C@@H](Cc1ccccc1)C(=O)O; NMeI = CC[C@H](C)[C@H](NC)C(=O)O; NMeT = CN[C@H](C(=O)O)[C@@H](C)O; NMeK = CN[C@@H](CCCCN)C(=O)O; NMeM = CN[C@@H](CCSC)C(=O)O; NMeV = CN[C@H](C(=O)O)C(C)C; NMeA = CN[C@@H](C)C(=O)O

Legend:
[1] = molecular target: Human immunodeficiency virus type 1 integrase (Human immunodeficiency virus 1) (UniProt Q7ZJM1); assay: Binding affinity to HIV-1 integrase measured after overnight incubation by chemiluminescence analysis relative to IN 174-188; set-up: concentration or dose not given beside the values
[2] = test system: Human immunodeficiency virus 1; assay: Binding affinity to HLT-tagged HIV-1 Rev measured after overnight incubation by chemiluminescence analysis relative to IN 174-188; set-up: concentration or dose not given beside the values

Chain of Human immunodeficiency virus type 1 integrase (Human immunodeficiency virus 1) (Q7ZJM1 as listed by the source): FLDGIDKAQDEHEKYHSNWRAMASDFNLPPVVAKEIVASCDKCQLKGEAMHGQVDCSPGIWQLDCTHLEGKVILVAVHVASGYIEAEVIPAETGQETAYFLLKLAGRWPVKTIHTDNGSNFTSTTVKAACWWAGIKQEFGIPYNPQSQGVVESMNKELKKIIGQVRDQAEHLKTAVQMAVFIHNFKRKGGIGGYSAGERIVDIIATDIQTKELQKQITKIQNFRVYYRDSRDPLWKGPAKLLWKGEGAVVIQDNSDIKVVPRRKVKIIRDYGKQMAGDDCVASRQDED

Row | SMILES | Activity [1] [%] | Activity [2] [%]
1 | CC[C@H](C)[C@H](NC(=O)[C@H](Cc1ccccc1)NC(=O)[C@@H](NC(=O)[C@H](C)NC(=O)[C@H](CCSC)NC(=O)[C@H](CCC(N)=O)NC(=O)[C@@H](NC(=O)[C@H](C)NC(=O)[C@@H](N)[C@@H](C)O)C(C)C)C(C)C)C(=O)N[C@@H](Cc1cnc[nH]1)C(=O)N[C@@H](CC(N)=O)C(=O)N[C@@H](Cc1ccccc1)C(=O)N[C@@H](C)C(=O)N[C@@H](CCCNC(=N)N)C(=O)N[C@@H](CCCCN)C(=O)O (H-TAVQMAVFIHNFARK-OH) | 91 | 176
2 | CC[C@H](C)[C@H](NC(=O)[C@H](Cc1ccccc1)NC(=O)[C@@H](NC(=O)[C@H](C)NC(=O)[C@H](CCSC)NC(=O)[C@H](CCC(N)=O)NC(=O)[C@@H](NC(=O)[C@H](C)NC(=O)[C@@H](N)[C@@H](C)O)C(C)C)C(C)C)C(=O)N[C@@H](Cc1cnc[nH]1)C(=O)N[C@@H](CC(N)=O)C(=O)N[C@@H](Cc1ccccc1)C(=O)N[C@@H](CCCCN)C(=O)O (H-TAVQMAVFIHNFK-OH) | 120 | 127
3 | CC[C@H](C)[C@H](NC(=O)[C@H](Cc1ccccc1)NC(=O)[C@@H](NC(=O)[C@H](C)NC(=O)[C@H](CCSC)NC(=O)[C@H](CCC(N)=O)NC(=O)[C@@H](NC(=O)[C@H](C)NC(=O)[C@@H](N)[C@@H](C)O)C(C)C)C(C)C)C(=O)N[C@@H](Cc1cnc[nH]1)C(=O)N[C@@H](CC(N)=O)C(=O)N[C@@H](Cc1ccccc1)C(=O)N[C@@H](CCCCN)C(=O)N[C@@H](C)C(=O)N[C@@H](CCCCN)C(=O)O (H-TAVQMAVFIHNFKAK-OH) | 127 | 234
4 | CC[C@H](C)[C@H](NC(=O)[C@H](Cc1ccccc1)NC(=O)[C@@H](NC(=O)[C@H](C)NC(=O)[C@H](CCSC)NC(=O)[C@H](CCC(N)=O)NC(=O)[C@@H](NC(=O)[C@H](C)NC(=O)[C@@H](N)[C@@H](C)O)C(C)C)C(C)C)C(=O)N[C@@H](Cc1cnc[nH]1)C(=O)N[C@@H](CC(N)=O)C(=O)N[C@@H](Cc1ccccc1)C(=O)N[C@@H](CCCCN)C(=O)N[C@@H](CCCNC(=N)N)C(=O)O (H-TAVQMAVFIHNFKR-OH) | 87 | 114
5 | CC[C@H](C)[C@H](NC(=O)[C@H](Cc1ccccc1)NC(=O)[C@@H](NC(=O)[C@H](C)NC(=O)[C@H](CCSC)NC(=O)[C@H](CCC(N)=O)NC(=O)[C@@H](NC(=O)[C@H](C)NC(=O)[C@@H](N)[C@@H](C)O)C(C)C)C(C)C)C(=O)N[C@@H](Cc1cnc[nH]1)C(=O)N[C@@H](CC(N)=O)C(=O)N[C@@H](Cc1ccccc1)C(=O)N[C@@H](CCCCN)C(=O)N[C@@H](CCCNC(=N)N)C(=O)N[C@@H](C)C(=O)O (H-TAVQMAVFIHNFKRA-OH) | 109 | 209
6 | CC[C@H](C)[C@H](NC(=O)[C@H](Cc1ccccc1)NC(=O)[C@@H](NC(=O)[C@H](C)NC(=O)[C@H](CCSC)NC(=O)[C@H](CCC(N)=O)NC(=O)[C@@H](NC(=O)[C@H](C)NC(=O)[C@@H](N)[C@@H](C)O)C(C)C)C(C)C)C(=O)N[C@@H](Cc1cnc[nH]1)C(=O)N[C@@H](CC(N)=O)C(=O)N[C@@H](Cc1ccccc1)C(=O)N[C@@H](CCCCN)C(=O)N[C@@H](CCCNC(=N)N)C(=O)N(C)[C@@H](CCCCN)C(=O)O (H-TAVQMAVFIHNFKR[NMeK]-OH) | 117 | 201
7 | CC[C@H](C)[C@H](NC(=O)[C@H](Cc1ccccc1)NC(=O)[C@@H](NC(=O)[C@H](C)NC(=O)[C@H](CCSC)NC(=O)[C@H](CCC(N)=O)NC(=O)[C@@H](NC(=O)[C@H](C)NC(=O)[C@@H](N)[C@@H](C)O)C(C)C)C(C)C)C(=O)N[C@@H](Cc1cnc[nH]1)C(=O)N[C@@H](CC(N)=O)C(=O)N[C@@H](Cc1ccccc1)C(=O)N[C@@H](CCCCN)C(=O)N(C)[C@@H](CCCNC(=N)N)C(=O)N[C@@H](CCCCN)C(=O)O (H-TAVQMAVFIHNFK[NMeR]K-OH) | 123 | 75
8 | CC[C@H](C)[C@H](NC(=O)[C@H](Cc1ccccc1)NC(=O)[C@@H](NC(=O)[C@H](C)NC(=O)[C@H](CCSC)NC(=O)[C@H](CCC(N)=O)NC(=O)[C@@H](NC(=O)[C@H](C)NC(=O)[C@@H](N)[C@@H](C)O)C(C)C)C(C)C)C(=O)N[C@@H](Cc1cnc[nH]1)C(=O)N[C@@H](CC(N)=O)C(=O)N[C@@H](Cc1ccccc1)C(=O)N(C)[C@@H](CCCCN)C(=O)N[C@@H](CCCNC(=N)N)C(=O)N[C@@H](CCCCN)C(=O)O (H-TAVQMAVFIHNF[NMeK]RK-OH) | 130 | 70
9 | CC[C@H](C)[C@H](NC(=O)[C@H](Cc1ccccc1)NC(=O)[C@@H](NC(=O)[C@H](C)NC(=O)[C@H](CCSC)NC(=O)[C@H](CCC(N)=O)NC(=O)[C@@H](NC(=O)[C@H](C)NC(=O)[C@@H](N)[C@@H](C)O)C(C)C)C(C)C)C(=O)N[C@@H](Cc1cnc[nH]1)C(=O)N[C@@H](CC(N)=O)C(=O)N(C)[C@@H](Cc1ccccc1)C(=O)N[C@@H](CCCCN)C(=O)N[C@@H](CCCNC(=N)N)C(=O)N[C@@H](CCCCN)C(=O)O (H-TAVQMAVFIHN[NMeF]KRK-OH) | 122 | 50
10 | CC[C@H](C)[C@@H](C(=O)N[C@@H](Cc1cnc[nH]1)C(=O)N[C@@H](CC(N)=O)C(=O)N[C@@H](Cc1ccccc1)C(=O)N[C@@H](CCCCN)C(=O)N[C@@H](CCCNC(=N)N)C(=O)N[C@@H](CCCCN)C(=O)O)N(C)C(=O)[C@H](Cc1ccccc1)NC(=O)[C@@H](NC(=O)[C@H](C)NC(=O)[C@H](CCSC)NC(=O)[C@H](CCC(N)=O)NC(=O)[C@@H](NC(=O)[C@H](C)NC(=O)[C@@H](N)[C@@H](C)O)C(C)C)C(C)C (H-TAVQMAVF[NMeI]HNFKRK-OH) | 123 | 107
11 | CC[C@H](C)[C@H](NC(=O)[C@H](Cc1ccccc1)N(C)C(=O)[C@@H](NC(=O)[C@H](C)NC(=O)[C@H](CCSC)NC(=O)[C@H](CCC(N)=O)NC(=O)[C@@H](NC(=O)[C@H](C)NC(=O)[C@@H](N)[C@@H](C)O)C(C)C)C(C)C)C(=O)N[C@@H](Cc1cnc[nH]1)C(=O)N[C@@H](CC(N)=O)C(=O)N[C@@H](Cc1ccccc1)C(=O)N[C@@H](CCCCN)C(=O)N[C@@H](CCCNC(=N)N)C(=O)N[C@@H](CCCCN)C(=O)O (H-TAVQMAV[NMeF]IHNFKRK-OH) | 141 | 152
12 | CC[C@H](C)[C@H](NC(=O)[C@H](Cc1ccccc1)NC(=O)[C@H](C(C)C)N(C)C(=O)[C@H](C)NC(=O)[C@H](CCSC)NC(=O)[C@H](CCC(N)=O)NC(=O)[C@@H](NC(=O)[C@H](C)NC(=O)[C@@H](N)[C@@H](C)O)C(C)C)C(=O)N[C@@H](Cc1cnc[nH]1)C(=O)N[C@@H](CC(N)=O)C(=O)N[C@@H](Cc1ccccc1)C(=O)N[C@@H](CCCCN)C(=O)N[C@@H](CCCNC(=N)N)C(=O)N[C@@H](CCCCN)C(=O)O (H-TAVQMA[NMeV]FIHNFKRK-OH) | 67 | 55
13 | CC[C@H](C)[C@H](NC(=O)[C@H](Cc1ccccc1)NC(=O)[C@@H](NC(=O)[C@H](C)N(C)C(=O)[C@H](CCSC)NC(=O)[C@H](CCC(N)=O)NC(=O)[C@@H](NC(=O)[C@H](C)NC(=O)[C@@H](N)[C@@H](C)O)C(C)C)C(C)C)C(=O)N[C@@H](Cc1cnc[nH]1)C(=O)N[C@@H](CC(N)=O)C(=O)N[C@@H](Cc1ccccc1)C(=O)N[C@@H](CCCCN)C(=O)N[C@@H](CCCNC(=N)N)C(=O)N[C@@H](CCCCN)C(=O)O (H-TAVQM[NMeA]VFIHNFKRK-OH) | 99 | 66
14 | CC[C@H](C)[C@H](NC(=O)[C@H](Cc1ccccc1)NC(=O)[C@@H](NC(=O)[C@H](C)NC(=O)[C@H](CCSC)N(C)C(=O)[C@H](CCC(N)=O)NC(=O)[C@@H](NC(=O)[C@H](C)NC(=O)[C@@H](N)[C@@H](C)O)C(C)C)C(C)C)C(=O)N[C@@H](Cc1cnc[nH]1)C(=O)N[C@@H](CC(N)=O)C(=O)N[C@@H](Cc1ccccc1)C(=O)N[C@@H](CCCCN)C(=O)N[C@@H](CCCNC(=N)N)C(=O)N[C@@H](CCCCN)C(=O)O (H-TAVQ[NMeM]AVFIHNFKRK-OH) | 103 | 134
15 | CC[C@H](C)[C@H](NC(=O)[C@H](Cc1ccccc1)NC(=O)[C@@H](NC(=O)[C@H](C)NC(=O)[C@H](CCSC)NC(=O)[C@H](CCC(N)=O)NC(=O)[C@H](C(C)C)N(C)C(=O)[C@H](C)NC(=O)[C@@H](N)[C@@H](C)O)C(C)C)C(=O)N[C@@H](Cc1cnc[nH]1)C(=O)N[C@@H](CC(N)=O)C(=O)N[C@@H](Cc1ccccc1)C(=O)N[C@@H](CCCCN)C(=O)N[C@@H](CCCNC(=N)N)C(=O)N[C@@H](CCCCN)C(=O)O (H-TA[NMeV]QMAVFIHNFKRK-OH) | 118 | 110
16 | CC[C@H](C)[C@H](NC(=O)[C@H](Cc1ccccc1)NC(=O)[C@@H](NC(=O)[C@H](C)NC(=O)[C@H](CCSC)NC(=O)[C@H](CCC(N)=O)NC(=O)[C@@H](NC(=O)[C@H](C)N(C)C(=O)[C@@H](N)[C@@H](C)O)C(C)C)C(C)C)C(=O)N[C@@H](Cc1cnc[nH]1)C(=O)N[C@@H](CC(N)=O)C(=O)N[C@@H](Cc1ccccc1)C(=O)N[C@@H](CCCCN)C(=O)N[C@@H](CCCNC(=N)N)C(=O)N[C@@H](CCCCN)C(=O)O (H-T[NMeA]VQMAVFIHNFKRK-OH) | 75 | 86
17 | CC[C@H](C)[C@H](NC(=O)[C@H](Cc1ccccc1)NC(=O)[C@@H](N)C(C)C)C(=O)N[C@@H](Cc1cnc[nH]1)C(=O)N[C@@H](CC(N)=O)C(=O)N[C@@H](Cc1ccccc1)C(=O)N[C@@H](CCCCN)C(=O)N[C@@H](CCCNC(=N)N)C(=O)N[C@@H](CCCCN)C(=O)O (H-VFIHNFKRK-OH) | 132 | 86
18 | CC[C@H](C)[C@H](NC(=O)[C@H](Cc1ccccc1)NC(=O)[C@@H](NC(=O)[C@H](C)NC(=O)[C@H](CCSC)NC(=O)[C@H](CCC(N)=O)NC(=O)[C@@H](N)C(C)C)C(C)C)C(=O)N[C@@H](Cc1cnc[nH]1)C(=O)N[C@@H](CC(N)=O)C(=O)N[C@@H](Cc1ccccc1)C(=O)N[C@@H](CCCCN)C(=O)N[C@@H](CCCNC(=N)N)C(=O)N[C@@H](CCCCN)C(=O)O (H-VQMAVFIHNFKRK-OH) | 133 | 104
19 | CC[C@H](C)[C@H](NC(=O)[C@H](Cc1ccccc1)NC(=O)[C@@H](NC(=O)[C@H](C)NC(=O)[C@H](CCSC)NC(=O)[C@H](CCC(N)=O)NC(=O)[C@@H](NC(=O)[C@H](C)NC(=O)[C@@H](NC)[C@@H](C)O)C(C)C)C(C)C)C(=O)N[C@@H](Cc1cnc[nH]1)C(=O)N[C@@H](CC(N)=O)C(=O)N[C@@H](Cc1ccccc1)C(=O)N[C@@H](CCCCN)C(=O)N[C@@H](CCCNC(=N)N)C(=O)N[C@@H](CCCCN)C(=O)O (H-[NMeT]AVQMAVFIHNFKRK-OH) | 84 | 93
